In patent publication US20020107219A1, “Adenoviral vector containing cyclooxygenase-2 promoter and uses thereof” (priority 2000, published 2002):

Assay type: in vivo, C57BL/6 mice
Text: To investigate the toxicity induced by the HSV-tk/GCV system, each group of ten C57BL/6 mice received a tail vein injection of AdCMV TK (10^9 pfu), Adcox2LTK (10^9 pfu) or phosphate-buffered saline on day 0. […] The mice were sacrificed on day 6 and the blood samples were collected to analyze total bilirubin, alanine aminotransferase (ALT), aspartate aminotransferase (AST) an d lactate dehydrogenase (LDH) at a veterinary laboratory (ANTECH Diagnostics, Farmingdale, N.Y.). For histopathological analysis, the major organs were fixed with 10% buffered formaldehyde, paraffin-embedded and cut in to 4 μm section, followed by deparaffinization and staining with hematoxylin and eosin.

For `Nc1nc(O)c2ncn(COC(CO)CO)c2n1` [GCV, ganciclovir], the “serum samples (total bilirubin, ALT, AST, LDH)” value (only GCV, without virus) was “did not show abnormality” and the “liver histology (H and E)” value (without virus administration) was “appeared almost normal”.
